ChEMBL document CHEMBL1201862, “PubChem BioAssay data set” (2004)
Activity calls are given as the source filed them.

Assays:
[1] = NIH3T3 cell viability loss – ATP luminescence, mouse fibroblasts, counter-screen, dose response (AID 2010); type: functional, cell-based;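 also: cells exposed to compound for about 90 hours before reading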
[2] = test system: Streptococcus sp. 'group A'; assay: Streptococcus pyogenes SK(-)GAS viability under kanamycin – luminescence, BacTiterGlo, confirmation, counter-screen for streptokinase expression inhibitor project, dose response (AID 1900); type: functional, organism-based
Vero = assay: cells; type: functional; details: Chlorocebus sabaeus
[3] = Trypanosoma cruzi growth suppression in host cells – NIH3T3 host cells, beta-gal luminescence, confirmation (AID 2044); type: functional, cell-based;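 also: intracellular parasites grown in NIH/3T3 mouse fibroblasts as host cells; luminescent beta-galactosidase reporter signal from transgenic T. cruzi replicating inside host cells; inhibitors lower the luminescence signal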
[4] = viability of HCT116 lacking mutant beta-catenin – cell-based, human colon tumor, dose response (AID 1045); type: functional;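 also: HCT116 colon tumor cells with beta catenin knocked out; cells exposed to compound for 60 hours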
[5] = viability of PTEN-deleted HCT116 cells – cell-based, HCT116 PTEN knockout, dose response (AID 1047); type: functional;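 also: HCT116 colon tumor cells with PTEN knocked out; cells exposed to compound for 60 hours before readout; potency for loss of cell viability measured by luminescence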
Streptokinase A = target: T1, Streptokinase A (Streptococcus pyogenes serotype M1, UniProt P10520); assay: viability-normalized secreted streptokinase activity reduction – plasminogen activation absorbance, OD405, dose response (AID 1914); type: functional, Streptococcus pyogenes M1 GAS;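 also: secreted streptokinase activity via plasminogen activation per viability signal from cell pellet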
T1 sequence (P10520 whole entry): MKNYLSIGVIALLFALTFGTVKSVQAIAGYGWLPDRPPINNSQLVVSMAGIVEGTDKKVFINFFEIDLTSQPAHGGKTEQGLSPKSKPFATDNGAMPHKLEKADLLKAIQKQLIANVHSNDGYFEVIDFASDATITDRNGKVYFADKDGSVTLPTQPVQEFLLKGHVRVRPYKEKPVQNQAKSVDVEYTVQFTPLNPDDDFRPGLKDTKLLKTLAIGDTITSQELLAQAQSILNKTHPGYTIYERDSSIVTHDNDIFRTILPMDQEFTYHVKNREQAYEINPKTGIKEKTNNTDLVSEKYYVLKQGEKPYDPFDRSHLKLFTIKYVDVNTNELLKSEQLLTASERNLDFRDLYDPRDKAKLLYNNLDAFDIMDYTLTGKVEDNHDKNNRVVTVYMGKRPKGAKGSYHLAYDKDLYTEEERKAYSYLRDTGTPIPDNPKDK

Streptococcus = assay: GAS UMAA2166 growth inhibition – luminescence, BacTiterGlo, counter-screen for streptokinase expression inhibitor project, dose response (AID 1915); type: functional, organism-based;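 also: potency for reduction of bacterial viability or growth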
[6] = target: Lysosomal acid glucosylceramidase (Homo sapiens, UniProt P04062); assay: Dose response cell-based high throughput screening assay to identify enhancers of beta-glucosidase activity. [Related pubchem assays: 784 ]; type: functional
[7] = target: Cyclin-dependent kinase 5/CDK5 activator 1 (Homo sapiens, UniProt Q00535); assay: blockade of human CDK5 activity – biochemical, cherry-picked samples, set 2, dose response (AID 504545)
[8] = loss of viability in HepG2 cells – cell-based, CellTiter-Glo, cherry-picked, cytotoxicity control for Shn3 inhibitor project, dose response (AID 624134); type: functional
[9] = target: Dual specificity tyrosine-phosphorylation-regulated kinase 1A (Rattus norvegicus, UniProt Q63470); type: biochemical, Homo sapiens
[10] = non-specific 3'UTR reporter inhibition in Clone20-Shn3RL – cell-based, Renilla luciferase, cherry-picked, counter-screen for Shn3 inhibitor project, dose response (AID 624133); type: functional
[11] = reduction of Shn3 3'UTR-driven luciferase in osteoblasts – cell-based, Clone20 osteoblasts, firefly luciferase, cherry-picked, dose response (AID 624132); type: functional;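 also: firefly luciferase luminescence from reporter carrying the Shn3 3'UTR in osteoblasts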
[12] = target: T2, Eukaryotic translation initiation factor 2-alpha kinase 3 (Homo sapiens, UniProt Q9NZJ5); assay: Dose response cell-based high-throughput screening assay to measure PERK inhibition. [Related pubchem assays: 1416 ]; type: functional
T2 sequence (Q9NZJ5 whole entry): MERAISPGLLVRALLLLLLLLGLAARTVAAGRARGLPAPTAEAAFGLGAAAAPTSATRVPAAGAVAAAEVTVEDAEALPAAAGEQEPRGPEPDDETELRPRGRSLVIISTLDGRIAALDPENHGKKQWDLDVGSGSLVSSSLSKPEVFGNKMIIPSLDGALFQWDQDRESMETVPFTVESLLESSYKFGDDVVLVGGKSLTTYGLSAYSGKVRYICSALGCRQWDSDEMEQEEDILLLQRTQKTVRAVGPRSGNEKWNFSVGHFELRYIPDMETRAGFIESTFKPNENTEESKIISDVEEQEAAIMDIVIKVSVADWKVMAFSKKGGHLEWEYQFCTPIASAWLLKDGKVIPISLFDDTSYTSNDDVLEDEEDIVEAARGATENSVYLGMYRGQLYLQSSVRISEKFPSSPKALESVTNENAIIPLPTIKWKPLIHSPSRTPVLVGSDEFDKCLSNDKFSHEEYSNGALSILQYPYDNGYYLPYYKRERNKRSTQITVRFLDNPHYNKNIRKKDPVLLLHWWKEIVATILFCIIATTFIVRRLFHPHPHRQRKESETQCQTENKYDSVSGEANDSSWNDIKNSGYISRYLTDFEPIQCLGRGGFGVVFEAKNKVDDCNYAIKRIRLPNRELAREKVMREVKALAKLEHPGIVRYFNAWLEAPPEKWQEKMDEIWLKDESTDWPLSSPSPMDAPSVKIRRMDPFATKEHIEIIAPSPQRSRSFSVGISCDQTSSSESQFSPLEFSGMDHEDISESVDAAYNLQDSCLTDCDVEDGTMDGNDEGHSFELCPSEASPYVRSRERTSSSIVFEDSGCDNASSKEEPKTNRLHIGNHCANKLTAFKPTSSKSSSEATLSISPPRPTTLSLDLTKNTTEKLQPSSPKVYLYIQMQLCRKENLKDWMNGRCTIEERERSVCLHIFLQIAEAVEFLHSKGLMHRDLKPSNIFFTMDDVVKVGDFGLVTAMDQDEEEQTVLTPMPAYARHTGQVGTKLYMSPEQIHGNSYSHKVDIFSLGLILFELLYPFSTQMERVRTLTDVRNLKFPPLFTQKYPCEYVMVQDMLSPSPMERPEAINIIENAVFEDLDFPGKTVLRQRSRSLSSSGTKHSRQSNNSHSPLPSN

[13] = target: T2, Eukaryotic translation initiation factor 2-alpha kinase 3; assay: Counterscreen assay for PERK inhibitors: Dose response cell-based high throughput screening assay to measure inhibition of PERK at 6 hours. [Related pubchem assays: 1522, 1416 ]; type: functional
Estrogen receptor = target: T3, Estrogen receptor (Homo sapiens, UniProt P03372);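 also: potency for inhibiting coactivator peptide recruitment to the receptor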
T3 sequence (P03372 whole entry): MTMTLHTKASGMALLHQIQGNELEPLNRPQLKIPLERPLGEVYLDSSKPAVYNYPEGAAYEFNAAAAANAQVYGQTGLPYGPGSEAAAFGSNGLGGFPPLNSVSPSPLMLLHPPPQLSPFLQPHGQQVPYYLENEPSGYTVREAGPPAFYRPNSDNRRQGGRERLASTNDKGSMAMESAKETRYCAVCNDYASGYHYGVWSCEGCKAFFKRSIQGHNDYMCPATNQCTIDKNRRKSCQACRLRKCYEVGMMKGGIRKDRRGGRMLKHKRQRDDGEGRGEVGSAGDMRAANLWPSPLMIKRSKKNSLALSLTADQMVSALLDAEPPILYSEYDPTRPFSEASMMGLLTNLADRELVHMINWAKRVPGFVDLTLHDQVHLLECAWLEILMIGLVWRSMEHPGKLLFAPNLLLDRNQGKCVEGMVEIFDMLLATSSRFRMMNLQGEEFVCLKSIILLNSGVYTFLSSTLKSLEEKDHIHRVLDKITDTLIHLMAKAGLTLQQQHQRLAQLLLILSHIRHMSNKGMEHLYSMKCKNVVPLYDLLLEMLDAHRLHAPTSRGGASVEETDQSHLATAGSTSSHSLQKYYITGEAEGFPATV

Estrogen receptor beta [14] = target: T4, Estrogen receptor beta (Homo sapiens, UniProt Q92731); assay: blockers of SRC-3 recruitment to ERβ – biochemical, ELISA, streptavidin-HRP readout, orthogonal assay, confirmation (AID 1060)
Estrogen receptor beta [15] = target: T4, Estrogen receptor beta
Bcl-2-like protein 10 = target: T5, Bcl-2-like protein 10 (Homo sapiens, UniProt Q9HD36); assay: Bcl-B/TR3 peptide binding disruption – biochemical, fluorescence polarization, FITC-TR3 peptide, selectivity assay for Bfl-1 inhibitor project, primary screen (AID 748);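 also: fluorescence polarization from a fluorescein-labelled TR3 peptide binding purified Bcl-B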
T5 sequence (Q9HD36 whole entry): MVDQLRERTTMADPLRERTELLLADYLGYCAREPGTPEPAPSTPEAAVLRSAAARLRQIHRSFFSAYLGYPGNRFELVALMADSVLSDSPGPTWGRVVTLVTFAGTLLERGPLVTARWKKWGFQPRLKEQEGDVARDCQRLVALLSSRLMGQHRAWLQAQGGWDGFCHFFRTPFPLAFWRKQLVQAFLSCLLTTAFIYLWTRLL

T4 sequence (Q92731 whole entry): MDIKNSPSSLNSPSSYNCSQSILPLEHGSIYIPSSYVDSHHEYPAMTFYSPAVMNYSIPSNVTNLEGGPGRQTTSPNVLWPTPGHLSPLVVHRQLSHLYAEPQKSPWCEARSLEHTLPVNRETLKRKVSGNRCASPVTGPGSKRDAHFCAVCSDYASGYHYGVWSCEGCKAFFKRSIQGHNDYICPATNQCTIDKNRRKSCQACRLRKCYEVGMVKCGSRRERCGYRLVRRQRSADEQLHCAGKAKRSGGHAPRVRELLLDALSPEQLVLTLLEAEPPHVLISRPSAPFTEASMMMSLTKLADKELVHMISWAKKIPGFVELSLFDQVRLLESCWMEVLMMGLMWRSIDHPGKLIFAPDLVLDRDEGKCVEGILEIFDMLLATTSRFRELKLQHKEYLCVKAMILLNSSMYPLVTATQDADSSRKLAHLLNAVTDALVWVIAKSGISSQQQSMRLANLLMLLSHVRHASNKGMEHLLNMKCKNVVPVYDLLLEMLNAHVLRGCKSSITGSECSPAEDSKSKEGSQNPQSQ
Sequence of Cyclin-dependent kinase 5/CDK5 activator 1 (Q00535 whole entry): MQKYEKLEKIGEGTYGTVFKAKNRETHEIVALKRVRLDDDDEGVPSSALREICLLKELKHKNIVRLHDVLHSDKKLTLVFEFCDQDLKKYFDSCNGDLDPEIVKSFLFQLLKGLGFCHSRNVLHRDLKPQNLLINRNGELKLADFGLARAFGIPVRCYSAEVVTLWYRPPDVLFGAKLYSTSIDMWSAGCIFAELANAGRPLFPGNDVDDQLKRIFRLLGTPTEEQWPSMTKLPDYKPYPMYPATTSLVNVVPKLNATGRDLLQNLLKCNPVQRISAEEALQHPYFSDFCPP
Sequence of Cyclin-dependent kinase 5/CDK5 activator 1 (Q15078 whole entry, further chain): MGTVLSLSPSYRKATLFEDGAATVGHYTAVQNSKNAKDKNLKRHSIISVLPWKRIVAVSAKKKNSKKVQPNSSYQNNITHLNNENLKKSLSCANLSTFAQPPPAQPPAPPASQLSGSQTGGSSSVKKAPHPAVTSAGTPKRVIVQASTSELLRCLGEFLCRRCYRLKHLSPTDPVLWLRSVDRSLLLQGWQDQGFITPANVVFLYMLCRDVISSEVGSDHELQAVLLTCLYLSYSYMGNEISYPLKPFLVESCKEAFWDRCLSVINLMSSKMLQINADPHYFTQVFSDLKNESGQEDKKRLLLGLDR
Sequence of Lysosomal acid glucosylceramidase (P04062 whole entry): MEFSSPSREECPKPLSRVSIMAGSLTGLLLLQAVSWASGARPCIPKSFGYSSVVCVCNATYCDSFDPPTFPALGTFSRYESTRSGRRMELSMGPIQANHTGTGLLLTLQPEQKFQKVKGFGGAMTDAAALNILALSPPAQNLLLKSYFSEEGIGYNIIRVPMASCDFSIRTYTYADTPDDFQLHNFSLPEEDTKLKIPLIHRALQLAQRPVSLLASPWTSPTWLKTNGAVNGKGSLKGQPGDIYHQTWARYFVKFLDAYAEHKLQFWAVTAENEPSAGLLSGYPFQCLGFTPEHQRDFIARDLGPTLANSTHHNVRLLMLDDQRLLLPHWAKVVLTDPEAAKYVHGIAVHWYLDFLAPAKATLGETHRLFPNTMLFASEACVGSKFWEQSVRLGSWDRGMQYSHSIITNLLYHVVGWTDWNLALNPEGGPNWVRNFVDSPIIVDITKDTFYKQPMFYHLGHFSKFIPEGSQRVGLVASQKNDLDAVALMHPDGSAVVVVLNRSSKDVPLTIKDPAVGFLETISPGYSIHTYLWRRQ

For CC(C)Cn1c(N)c(C(=O)NCc2cccs2)c2nc3ccccc3nc21, the EC50 [1] was > 60 µM (not active), the EC50 [2] was 3.56 µM (active) and the CC50 (Vero) was 14 µM (active). For the same molecule, the EC50 [3] was 2.17 µM (active), the EC50 [4] was 47 µM (active) and the EC50 [5] was 36 µM (active). The EC50 (Streptokinase A) was 30.2 µM (active), the EC50 (Streptococcus) was 7.88 µM (active) and the EC50 [6] was 2.49 µM (active).

For Cc1[nH]nc2c1-c1nc3ccccc3nc1C(C)(C)C2, the AC50 [7] was 14.7 µM (active), the AC50 [8] was 24.4 µM (active) and the AC50 [9] was 2.38 µM (active). For the same molecule, the AC50 [10] was 9.03 µM (active) and the AC50 [11] was 4.2 µM (active).

With CCOC(=O)c1c(C)noc1-c1ccc(Br)o1 the EC50 [12] was > 55.7 µM (not active) and the EC50 [13] was > 55.7 µM (not active).

In the case of CCC1(C)NC(=O)N(CC(=O)Nc2sc3c(c2C(N)=O)CCC3)C1=O (stereo unspecified), the IC50 (Estrogen receptor) is reported as 18.2 µM (active) and the IC50 (Estrogen receptor beta [14]) is reported as 0.0325 µM (not active).

In the case of COc1ccc(C(N)CCc2ccc(C)o2)cc1 (stereo unspecified), the IC50 (Estrogen receptor beta [15]) is reported as 6.8 µM (active), the IC50 (Bcl-2-like protein 10) is reported as > 50 µM (inactive) and the IC50 (Estrogen receptor beta [14]) is reported as 93.7 µM (not active).
